The subject of experiment [1] is HSMM. In words: D2 activity in human skeletal muscle myoblasts. Format: cell-based. The settings on record: 16 h incubation. The protocol:
HSMM were obtained from Cambrex (Walkersville, Md.) and were cultured according to the suppliers instructions. D2 activity measurements were performed after a 16 h incubation with the indicated compounds. For the cAMP measurements, cells were preincubated 12 h in Opti-MEM (Life Technologies, Cergy Pontoise, France), supplemented with 1 mM IBMX. Then medium was changed and cells were incubated for another 1 h in Opti-MEM with 1 mM IBMX, after which the medium was replaced for Opti-MEM with 1 mM IBMX and the indicated compounds. After 30 minutes the cells were lysed for cAMP analysis.

The test system of a further experiment is BAT cells. In words: Isolated mouse BAT cells, D2 mRNA, D2 activity and cAMP. It counts as cell-based. To be noted: BAT cells. The procedure: (§1) An OGTT was performed in animals that were fasted overnight. Glucose was administered by gavage at a dose of 2 g/kg. An IPITT was done in 4 h fasted animals. Insulin was injected at a dose of 0.75 U/kg. Glucose quantification was done with the Maxi Kit Glucometer 4 (Bayer Diagnostic, Puteaux, France) or Glucose RTU (bioMérieux Inc., Marcy l'Etoile, France). Plasma insulin concentrations were measured using ELISA (Cristal Chem Inc., Downers Grove, Ill.). Nonesterified fatty acids, triglycerides, ketone bodies, BA and total cholesterol were determined by enzymatic assays (Roche, Mannheim, Germany). cAMP was measured using the cAMP-Screen system (Applied Biosystems, Bedford, Mass.).

The test system of experiment [2] is HSMM. In words: cAMP levels in human skeletal muscle myoblasts. It counts as cell-based. The settings on record: 1 mM IBMX, 30 minutes. Background: cAMP levels reflect the balance of adenylyl cyclase and phosphodiesterase activity.
Protocol: HSMM were obtained from Cambrex (Walkersville, Md.) and were cultured according to the suppliers instructions. […] For the cAMP measurements, cells were preincubated 12 h in Opti-MEM (Life Technologies, Cergy Pontoise, France), supplemented with 1 mM IBMX. Then medium was changed and cells were incubated for another 1 h in Opti-MEM with 1 mM IBMX, after which the medium was replaced for Opti-MEM with 1 mM IBMX and the indicated compounds. After 30 minutes the cells were lysed for cAMP analysis.
For another experiment, the system named is ob/ob mice. In words: GW4064 treatment of ob/ob mice, serum TG. It counts as in vivo, mouse. The settings on record: chow-fed ob/ob mice, 1 week, intraperitoneal 10 mg/kg daily. The procedure:
Male C57BL/6J, KK-Ay, and ob/ob (C57BL/6J background) mice, 6-10 weeks of age, were obtained from Elevage Janvier (Le Genest St. Isle, France), CLEA Japan Inc. (Tokyo, Japan), and The Jackson Laboratory (Bar Harbor, Me., USA), respectively. All mice were maintained in a temperature-controlled (23° C.) facility with a 12-hour light/dark cycle and were given free access to food and water. The study protocols were approved by the institutional review boards. The body weight and food intake were measured every second day. The control and high-fat diet was obtained from UAR (Villemoisson sur Orge, France). The control diet (EQ12310) contained 16.8% protein, 73.5% carbohydrate, and 4.8% fat, whereas the high-fat diet (EQ/ID12309) contained 23.0% protein, 35.5% carbohydrate, and 35.9% fat. For treatment with bile acids, mice were fed diets with 0.5% (w/w) CA. The mice were fasted 4 hours before harvesting blood for subsequent lipid measurements, and tissues for RNA isolation, lipid measurements, and histology. Male SHP−/−mice and littermate SHP+/+ controls (C57/BL6-A129/SvJ mixed strain) of 8 weeks were fed the CA diet as just described or gavaged with GW4064 dissolved in corn oil at 30 mg/kg. […]
Serum total cholesterol, TGs, and lipoprotein cholesterol and TG profiles were measured as described (Rocchi, et al., Mol Cell. 8:737-747 (2001); Picard, et al., Cell 111:931-941 (2002)). […]

The subject of experiment [3] is KK-Ay mice. In words: CA or GW4064 treatment of KK-Ay mice, serum lipids. It counts as in vivo, mouse. The settings on record: chow-fed KK-Ay mice, 1 week, intraperitoneal 10 mg/kg daily. The protocol: (§2) Male C57BL/6J, KK-Ay, and ob/ob (C57BL/6J background) mice, 6-10 weeks of age, were obtained from Elevage Janvier (Le Genest St. Isle, France), CLEA Japan Inc. (Tokyo, Japan), and The Jackson Laboratory (Bar Harbor, Me., USA), respectively. All mice were maintained in a temperature-controlled (23° C.) facility with a 12-hour light/dark cycle and were given free access to food and water. The study protocols were approved by the institutional review boards. The body weight and food intake were measured every second day. The control and high-fat diet was obtained from UAR (Villemoisson sur Orge, France). […] The mice were fasted 4 hours before harvesting blood for subsequent lipid measurements, and tissues for RNA isolation, lipid measurements, and histology.
For measurement of liver TGs and cholesterol content, a liver was homogenized in chloroform/methanol (2:1 v/v) using a Polytron tissue grinder (Kinematica AG, Luzern, Switzerland). Lipid extracts were prepared by the classical Folch method. Extracts were dried under N2 flow and resuspended in isopropanol.

For experiment [4], the system named is KK-Ay mice. In words: In vivo VLDL TG production (Tyloxapol) in KK-Ay mice. More on the design: species or system mouse. To be noted: 1-week administration of GW4064.
In a further experiment the test system is C57BL/6J mice. In words: Diet-induced obesity in C57BL/6J mice. Format: in vivo, mouse. The procedure:
Male C57BL/6J and KK-Ay mice, 6-7 weeks of age, were obtained from Charles River Laboratories France (l'Arbresle, France) and CLEA Japan Inc. (Tokyo, Japan), respectively. […] All mice were maintained in a temperature-controlled (23° C.) facility with a 12 h light/dark cycle and were given free access to food and water. The control and high-fat diet was obtained from UAR (Villemoison surOrge, France). […] GW4064 was suspended in peanut oil and mixed with the high fat diet at a concentration of 180 mg per kg of food. […] The mice were fasted 4 h before harvesting blood for subsequent blood measurements, and tissues for RNA isolation, lipid measurements and histology. Oxygen consumption was measured using the Oxymax apparatus (Columbus Instruments, Columbus, Ohio).
as §1
Pieces of mouse tissues were fixed in Bouin's solution, dehydrated in ethanol, embedded in paraffin, and cut at a thickness of 5 μm. Sections were deparaffinized, rehydrated, and stained with haematoxylin and eosin. Transmission electron microscopy was then performed.

Another experiment deals with rats. The settings on record: rats treated for 7 days; cited from earlier work.
Another experiment has as its system BAT of C57BL/6J mice. In words: BAT gene expression by microarray and Q-RT-PCR. It counts as in vivo, mouse. To be noted: GW4064 treatment.
Another experiment relates to SHP+/+ and SHP-/- mice. In words: FXR agonists in SHP+/+ and SHP-/- mice. Format: in vivo, mouse. The settings on record: for hepatic expression of SREBP-1c, ME, CYP7A1 and ANGPTL3: 1-day treatment. The protocol: as §2

The structures appear in SMILES notation.

Protocol for BAT of C57BL/6J mice: For microarray analysis, RNA was isolated from BAT using the RNeasy mini kit (QIAGEN, Courtaboeuf, France). Equal amounts of RNA from mice in each group were pooled (n=3 or 4 mice) and used for cDNA synthesis. After second-strand cDNA synthesis (Life Technologies, Cergy Pontoise, France), in vitro transcription was performed with biotinylated UTP and CTP (Enzo Diagnostics, Farmingdale, N.Y.). Fragmented cRNA samples were hybridized to the Affymetrix MOE430A microarray. The raw data was analyzed using the Microarray Suite Software version 5.0 (MAS5.0, Affymetrix, Santa Clara, Calif.).

Take `CC(C)c1onc(-c2c(Cl)cccc2Cl)c1COc1ccc(/C=C/c2cccc(C(=O)O)c2)c(Cl)c1` [GW4064]: the D2 activity result in the experiment on HSMM [1] is on record as “did not induce”. In addition, the cAMP levels result in the experiment with BAT cells and in the experiment on HSMM [2] was “did not increase” each time. Moreover, the “serum TG levels” value with ob/ob mice and in the experiment with KK-Ay mice [3] was “potently lowered” throughout. The VLDL secretion entry with KK-Ay mice [4] is on record as “significantly lowered”. The “effect against diet-induced obesity” value in the experiment on C57BL/6J mice (high fat diet supplemented with GW4064, 15 mg/kg daily) was “no protective effect”. Moreover, in the experiment on C57BL/6J mice (mice on a high fat diet with GW4064), the body weight gain entry is listed as “significantly increased”. Moreover, the “plasma TG” value in the experiment on rats is on record as “decreased”. Further, the thermogenic gene response result in the experiment with BAT of C57BL/6J mice is listed as “did not result in an induction”. The “serum TGs” value with SHP+/+ and SHP-/- mice (SHP+/+ mice, 0, 3 and 7 days) is “significantly lowered”. Also, the “hepatic expression of SREBP-1c, ME, CYP7A1 and ANGPTL3” value with SHP+/+ and SHP-/- mice (SHP+/+ mice) is listed as “significantly reduced”; in the experiment on SHP+/+ and SHP-/- mice (SHP-/- mice), “no decrease”. The “decrease in serum TGs” value in the experiment with SHP+/+ and SHP-/- mice (SHP-/- mice) is “completely abolished”.
